± gives the expanded uncertainty stated by the source.

For the series the following is noted: Crystal; visual observation.

Consider `Clc1cc(Cl)c(Cl)nc1Cl` [2,3,5,6-tetrachloropyridine], for which the Normal melting temperature is 90.00 ± 0.5 °C.
The same measure for `Clc1nc(Cl)c(Cl)c(Cl)c1Cl` [pentachloropyridine]: 124.00 ± 0.5 °C.

The values above are taken from the NIST ThermoML archive (doi:10.1021/je0502804).
